Measured values taken from US20260274955A1, “ANTIBODIES FOR TARGETING CD28 AND USES THEREOF” (Janux Therapeutics, Inc., priority 2023, published 2026).
Like-named read-outs stand apart in the source and are kept apart here.

How the values were obtained:
[1] = tested on: anti-CD28 scFv (SEQ ID NO: 35); test: Kinetic binding by bio-layer interferometry (Octet RED96): anti-CD28 scFv to peptides; set-up: species or system human; details: BLI Octet RED96; biotinylated peptide loaded on streptavidin sensor; anti-CD28 scFv 100-12.5 nM; 1:1 binding model
Description: (§1) Briefly, streptavidin biosensors were loaded with biotinylated peptides and baselined in buffer. […] After a short association period, sensors were transferred into buffer and the dissociation of bound anti-CD28 scFv was measured. The timing and steps of the experiment are shown in the accompanying table. Association and dissociation signals were recorded in real time and analyzed using a 1:1 binding model within the instrument software. Analysis using a 1:1 binding model enabled the calculation of the on and off rate constants as well as affinity, KD.
as §1, with “KD. FIGS. 48A-48F illustrate kinetic binding of anti-CD28 scFv binding to peptides as measured by Octet. FIGS. 48G-48U illustrate kinetic binding of peptides to the anti-CD28 scFv as measured by Octet.” for “KD.”

[2] = tested on: Ab-1; test: Kinetic binding via BLI (Octet): Ab-1 binding to peptide-loaded sensors; set-up: species or system human; details: Table 15, 100 nM Ab-1
Description: (§2) Kinetic binding of the peptides of Table 1 to Ab-1 was evaluated using biolayer interferometry (BLI). Briefly, biotinylated peptides were loaded onto a streptavidin coated Octet® SAX biosensor, quenched in biocytin, and baselined in buffer. Ab-1 was titrated in solution and associated onto the peptide loaded sensor. After a short association period, sensors were transferred into buffer and the dissociation of bound Ab-1 was measured. Association and dissociation signals were recorded in real time and analyzed using a 1:1 binding model within the instrument software. Analysis using a 1:1 binding model enabled the calculation of the on and off rate constants as well as affinity, KD.

[3] = target: anti-CD28 Fab (SEQ ID NOs: 202, 203); test: Competition ELISA: peptide inhibition of anti-CD28 Fab binding to plate-bound CD28 (also alanine scanning peptides); details: anti-CD28 Fab fixed at 1 nM
Description: Ab-1 fixed at 1 nanomolar (nM) concentration was pre-incubated with 0-100 micromolar (μM) titrated peptides. After a short pre-incubation period, the mixture of titrated peptide with fixed Ab-1 were added to the CD28 antigen coated plates. After a short incubation on the plates, bound Ab-1 was detected with a standard horse radish peroxidase conjugated secondary antibody.
(§3) The anti-CD28 Fab was fixed at a concentration of 1 nM and incubated with titrated 0-100 μM peptides.

[4] = target: anti-CD28 scFv (disulfide) (SEQ ID NO: 67); test: Competition ELISA: peptide inhibition of anti-CD28 scFv (disulfide) binding to plate-bound CD28
Description: […] After a short pre-incubation period, the mixture of titrated peptide with fixed Ab-1 were added to the CD28 antigen coated plates. After a short incubation on the plates, bound Ab-1 was detected with a standard horse radish peroxidase conjugated secondary antibody.
as §3

[5] = tested on: anti-CD28 Fab (SEQ ID NOs: 202, 203); test: Kinetic binding via BLI: peptides to anti-CD28 Fab; details: for Off rate t½: Table 18, anti-CD28 Fab; for Kd / t½: binding to anti-CD28 Fab
Description: as §2, with “Briefly, biotinylated peptides were loaded onto a streptavidin coated Octet® SAX biosensor, quenched in biocytin, and baselined in buffer.” left out
Kinetic binding of the peptides to anti-CD28 Fab (SEQ ID NOs: 202, 203) was evaluated using BLI as described above.

[6] = titrated 0-100 μM peptides, plate-bound CD28 antigen, read-out: anti-CD28 Fab Competition ELISA IC50
[7] = read-out: anti-CD28 scFv (disulfide) Competition ELISA IC50, anti-CD28 scFv fixed at 0.3 nM, titrated 0-100 μM peptides, plate-bound CD28 antigen
[8] = Table 19, anti-CD28 scFv (disulfide) fixed at 0.3 nM, 0-100 μM peptide, read-out: Competition ELISA IC50

Chain of anti-CD28 scFv (SEQ ID NO: 35) (as listed by the source): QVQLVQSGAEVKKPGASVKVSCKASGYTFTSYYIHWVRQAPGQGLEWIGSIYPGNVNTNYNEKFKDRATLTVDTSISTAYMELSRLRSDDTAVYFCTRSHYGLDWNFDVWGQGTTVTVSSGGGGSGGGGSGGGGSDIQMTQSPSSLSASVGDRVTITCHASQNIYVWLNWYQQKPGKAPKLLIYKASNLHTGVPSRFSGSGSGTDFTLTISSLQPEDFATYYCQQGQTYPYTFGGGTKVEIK
Chain of anti-CD28 scFv (disulfide) (SEQ ID NO: 67) (as listed by the source): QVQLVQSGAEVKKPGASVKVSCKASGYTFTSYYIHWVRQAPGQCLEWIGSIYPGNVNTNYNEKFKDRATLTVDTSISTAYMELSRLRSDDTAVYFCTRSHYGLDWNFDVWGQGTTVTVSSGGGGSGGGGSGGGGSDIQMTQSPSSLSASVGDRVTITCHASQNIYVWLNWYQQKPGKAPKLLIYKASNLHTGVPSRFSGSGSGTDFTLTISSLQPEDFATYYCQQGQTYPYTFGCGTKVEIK
Chain of anti-CD28 Fab (SEQ ID NOs: 202, 203) (as listed by the source): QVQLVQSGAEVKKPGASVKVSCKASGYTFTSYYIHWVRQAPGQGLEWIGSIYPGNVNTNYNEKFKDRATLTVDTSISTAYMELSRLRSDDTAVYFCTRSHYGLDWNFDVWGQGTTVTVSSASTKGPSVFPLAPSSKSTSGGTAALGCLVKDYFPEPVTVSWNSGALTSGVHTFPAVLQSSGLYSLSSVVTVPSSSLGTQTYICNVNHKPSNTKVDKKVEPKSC
Chain of anti-CD28 Fab (SEQ ID NOs: 202, 203) (as listed by the source): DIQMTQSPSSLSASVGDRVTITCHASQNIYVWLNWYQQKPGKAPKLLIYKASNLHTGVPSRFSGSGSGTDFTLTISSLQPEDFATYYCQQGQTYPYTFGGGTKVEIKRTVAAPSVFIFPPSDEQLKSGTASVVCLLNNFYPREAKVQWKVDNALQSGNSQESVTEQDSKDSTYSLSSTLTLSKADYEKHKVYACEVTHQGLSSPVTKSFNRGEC

| Substance | IC50 [3, 6] | IC50 [4, 7] | Off rate t½ [5] | further results |
| --- | --- | --- | --- | --- |
| MHWCPVDLWYLCYN [Peptide-154] |  |  |  | kdis [1]: 0.00186 s⁻¹; kon [1]: 88200 M⁻¹ s⁻¹ |
| MNWCPKDIWYLCFN [Peptide-140] |  |  |  | kdis [1]: 0.00684 s⁻¹; kon [1]: 77000 M⁻¹ s⁻¹ |
| Met(O)2-DWCPRDLWVHCFA [Peptide-21] |  |  |  | Octet signal (20 nM peptide) [2]: 0.4179 |
| Met(O)-DWCPRDLWVHCFA [Peptide-20] |  |  |  | Octet signal (20 nM peptide) [2]: 0.1733 |
| SCAAAASYAWPYCL [Peptide-52, alanine scanning peptide of Peptide-44] | > 100 µM | > 100 µM |  |  |
| SCAAGASAAWPYCL [Peptide-54, alanine scanning peptide of Peptide-44] | > 100 µM | > 100 µM |  |  |
| SCAAGASYAAPYCL [Peptide-55, alanine scanning peptide of Peptide-44] | > 100 µM | > 100 µM |  |  |
| SCAAGASYAWAYCL [Peptide-56, alanine scanning peptide of Peptide-44] | > 100 µM | > 100 µM |  |  |
| SCAAGASYAWPYCA [Peptide-58, alanine scanning peptide of Peptide-44] |  | > 100 µM |  |  |
| SCAAGASYAWPYCL [Peptide-44] |  |  |  | IC50 [4, 8]: > 100 µM |
| WCWDYKLWVPMTCP [Peptide-37] |  |  |  | IC50 ([3]; Table 16, 0-100 μM peptide, read-out: Competition ELISA IC50): > 100 µM; IC50 [4, 8]: > 100 µM |
| YCAAHAWQYINKCL [Peptide-60, alanine scanning peptide of Peptide-39] | > 100 µM | > 100 µM |  |  |
| YCAGAAWQYINKCL [Peptide-61, alanine scanning peptide of Peptide-39] | > 100 µM | > 100 µM |  |  |
| YCAGHAWQAINKCL [Peptide-64, alanine scanning peptide of Peptide-39] | > 100 µM | > 100 µM |  |  |
| YCAGHAWQYANKCL [Peptide-65, alanine scanning peptide of Peptide-39] |  | > 100 µM |  |  |
| YCAGHAWQYINACL [Peptide-67, alanine scanning peptide of Peptide-39] | > 100 µM | > 100 µM |  |  |
| YCAGHAWQYINKCL [Peptide-39] |  |  | 42 s | IC50 [4, 8]: > 100 µM; Kd [5]: 2.02 µM; t½ [5]: 36 s |
| YCAGHSPINIGKCL [Peptide-36] |  |  |  | IC50 [4, 8]: > 100 µM |
| YCEGHAPEYIAKCL [Peptide-73, optimization library of Peptide-39] |  |  | 24 s | Kd [5]: 0.831 µM; t½ [5]: 24 s |
| YCEGHLPEYIEKCL [Peptide-72, optimization library of Peptide-39] |  |  | 30 s | Kd [5]: 0.926 µM; t½ [5]: 30 s |
| YCEGHLPEYIQKCL [Peptide-86, optimization library of Peptide-39] |  |  | 54 s | t½ [5]: 60 s |
| YCEGHLPEYIWKCL [Peptide-87, optimization library of Peptide-39] |  |  | 54 s |  |
| YCEGHLPEYLAKCL [Peptide-79, optimization library of Peptide-39] |  |  | 60 s | Kd [5]: 0.0447 µM; t½ [5]: 60 s |
| YCEGHLPEYREKCL [Peptide-78, optimization library of Peptide-39] |  |  | 36 s | t½ [5]: 36 s |
| YCEGHLPEYRNKCL [Peptide-84, optimization library of Peptide-39] |  |  | 48 s | Kd [5]: 0.11 µM; t½ [5]: 48 s |
| YCWSHSPPFIKKCY [Peptide-83, optimization library of Peptide-39] |  |  |  | IC50 ([3]; Table 18, 0-100 μM peptide, read-out: Competition ELISA IC50): > 100 µM |
